According to PubChem BioAssay (NCI):
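Values below derive from 48-hour exposures of cells grown in 96-well plates, with endpoints linearly interpolated between the two concentrations bracketing the appropriate inhibition level. Here, GI50 denotes the concentration required for 50% inhibition of growth. TGI: concentration producing complete growth inhibition.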

Assays:
Assay in all cases: NCI anticancer screen, dose series, 48 h; in the data active = GI50 below about 0.43 µM; inactive = the rest
OVCAR-8 ovarian = tested on: OVCAR-8 ovarian
PC-3 prostate = tested on: PC-3 prostate
HT29 colon = tested on: HT29 colon
HL-60(TB) leukemia = tested on: HL-60(TB) leukemia
SF-539 CNS = tested on: SF-539 CNS
EKVX NSCLC = tested on: EKVX NSCLC
NCI-H460 lung = tested on: NCI-H460 lung
COLO 205 colon = tested on: COLO 205 colon
SR leukemia = tested on: SR leukemia
K-562 leukemia = tested on: K-562 leukemia

O=C(CC(Cl)=C(Cl)Cl)Nc1ccccc1
inactive: GI50 (OVCAR-8 ovarian) > 100 µM | GI50 (PC-3 prostate) > 100 µM | GI50 (HT29 colon) > 100 µM | GI50 (HL-60(TB) leukemia) > 100 µM | GI50 (SF-539 CNS) > 100 µM | GI50 (EKVX NSCLC) > 100 µM | GI50 (NCI-H460 lung) > 100 µM | GI50 (COLO 205 colon) > 100 µM
> 100 µM: TGI (OVCAR-8 ovarian) | TGI (PC-3 prostate) | TGI (HT29 colon) | TGI (HL-60(TB) leukemia) | TGI (SF-539 CNS) | TGI (EKVX NSCLC) | TGI (NCI-H460 lung) | TGI (COLO 205 colon)

CN(C)C=Nc1ccn(CCO)c(=O)n1
> 100 µM: TGI (OVCAR-8 ovarian) | TGI (HT29 colon) | TGI (HL-60(TB) leukemia) | TGI (SF-539 CNS) | TGI (SR leukemia) | TGI (EKVX NSCLC) | TGI (NCI-H460 lung) | TGI (K-562 leukemia) | TGI (COLO 205 colon)

Cn1cc(C(=O)c2ccccc2)c2ccccc2c1=O
> 100 µM: TGI (OVCAR-8 ovarian) | TGI (HT29 colon) | TGI (HL-60(TB) leukemia) | TGI (SF-539 CNS) | TGI (SR leukemia) | TGI (EKVX NSCLC) | TGI (NCI-H460 lung) | TGI (COLO 205 colon)

CC(C)(C)c1ccc(S(=O)(=O)Oc2ccc3c4c(c(=O)oc3c2)CCCCC4)cc1
inactive: GI50 (OVCAR-8 ovarian) 21.8 µM | GI50 (PC-3 prostate) 2.22 µM | GI50 (HT29 colon) 7.95 µM | GI50 (SF-539 CNS) 24.2 µM | GI50 (NCI-H460 lung) 7.3 µM | GI50 (COLO 205 colon) 14.4 µM
> 100 µM: TGI (OVCAR-8 ovarian) | TGI (PC-3 prostate) | TGI (HT29 colon) | TGI (SF-539 CNS) | TGI (NCI-H460 lung) | TGI (COLO 205 colon)

CCCCCCCCCCCCOC1C(CNC(=O)C2OC3OC(C)(C)OC3C2NC(=O)Nc2ccc(CC(=O)OC)cc2)OC2OC(C)(C)OC21 (centres undefined)
> 47.9 µM: TGI (HL-60(TB) leukemia)
> 100 µM: TGI (OVCAR-8 ovarian) | TGI (PC-3 prostate) | TGI (HT29 colon) | TGI (SF-539 CNS) | TGI (SR leukemia) | TGI (EKVX NSCLC) | TGI (NCI-H460 lung) | TGI (COLO 205 colon)
inactive: GI50 (OVCAR-8 ovarian) > 100 µM | GI50 (PC-3 prostate) > 100 µM | GI50 (HT29 colon) > 100 µM | GI50 (SF-539 CNS) > 100 µM | GI50 (SR leukemia) > 100 µM | GI50 (EKVX NSCLC) > 100 µM | GI50 (NCI-H460 lung) > 100 µM | GI50 (COLO 205 colon) > 72.5 µM

Nc1ncnc2c1ncn2[C@]1(CO)C=C(CO)C(O)C1O (some centres undefined)
> 100 µM: TGI (HT29 colon) | TGI (HL-60(TB) leukemia) | TGI (SR leukemia) | TGI (NCI-H460 lung) | TGI (COLO 205 colon)

COc1ccc(C2=C(Cl)c3cc(OC)c(OC)cc3C2OC)cc1OC (centres undefined)
> 100 µM: TGI (OVCAR-8 ovarian) | TGI (HT29 colon) | TGI (HL-60(TB) leukemia) | TGI (SF-539 CNS) | TGI (EKVX NSCLC) | TGI (NCI-H460 lung) | TGI (COLO 205 colon)
52.7 µM: TGI (K-562 leukemia)

Cn1c2c(c3ccccc31)CCN(CCCCN1CCCCC1)C2=O
> 100 µM: TGI (OVCAR-8 ovarian) | TGI (HT29 colon) | TGI (HL-60(TB) leukemia) | TGI (SF-539 CNS) | TGI (EKVX NSCLC) | TGI (NCI-H460 lung) | TGI (K-562 leukemia) | TGI (COLO 205 colon)

c1cc(NNc2cccc(-c3nn[nH]n3)c2)cc(-c2nn[nH]n2)c1
> 100 µM: TGI (OVCAR-8 ovarian) | TGI (PC-3 prostate) | TGI (HT29 colon) | TGI (SF-539 CNS) | TGI (EKVX NSCLC) | TGI (NCI-H460 lung) | TGI (K-562 leukemia) | TGI (COLO 205 colon)

N#CCCN(c1ccc(C=Nc2ccccc2)cc1)S(=O)(=O)c1ccccc1
> 100 µM: TGI (OVCAR-8 ovarian) | TGI (HT29 colon) | TGI (HL-60(TB) leukemia) | TGI (SF-539 CNS) | TGI (SR leukemia) | TGI (EKVX NSCLC) | TGI (K-562 leukemia) | TGI (COLO 205 colon)

Cc1cc(O)c(=O)cc2c1C[C@H]1CC(C)(C)/C=C/C[C@]3(C)Oc4cc(=O)c(O)cc(C)c4C[C@H]3C[C@H](O)[C@@]1(C)O2
active: GI50 (OVCAR-8 ovarian) < 0.01 µM | GI50 (PC-3 prostate) < 0.01 µM | GI50 (HT29 colon) < 0.01 µM | GI50 (HL-60(TB) leukemia) 0.0249 µM | GI50 (SF-539 CNS) 0.0332 µM | GI50 (SR leukemia) < 0.0115 µM | GI50 (EKVX NSCLC) 0.0172 µM | GI50 (NCI-H460 lung) < 0.01 µM
> 100 µM: TGI (HT29 colon)
0.102 µM: TGI (HL-60(TB) leukemia)
10.3 µM: TGI (NCI-H460 lung)
> 46.2 µM: TGI (EKVX NSCLC)
11.6 µM: TGI (OVCAR-8 ovarian)
58.6 µM: TGI (SF-539 CNS)
0.591 µM: TGI (SR leukemia)
23.5 µM: TGI (PC-3 prostate)

CC(N)C(Cc1ccc(Cl)cc1)c1ccc(Cl)cc1 (centres undefined)
inactive: GI50 (OVCAR-8 ovarian) 20.4 µM | GI50 (PC-3 prostate) 12.8 µM | GI50 (HT29 colon) 3.29 µM | GI50 (HL-60(TB) leukemia) 10.6 µM | GI50 (SF-539 CNS) 13.3 µM | GI50 (EKVX NSCLC) 9.22 µM | GI50 (NCI-H460 lung) 5.55 µM | GI50 (K-562 leukemia) 3.05 µM | GI50 (COLO 205 colon) 1.89 µM
26.3 µM: TGI (PC-3 prostate)
3.97 µM: TGI (COLO 205 colon)
52.8 µM: TGI (OVCAR-8 ovarian)
22.4 µM: TGI (EKVX NSCLC)
26.8 µM: TGI (SF-539 CNS)
13.6 µM: TGI (HT29 colon)
26.1 µM: TGI (HL-60(TB) leukemia)
10.8 µM: TGI (K-562 leukemia)
18.5 µM: TGI (NCI-H460 lung)

O=C(NCCCCCCCCCCCCNC(=O)c1cccc2ccccc12)c1cccc2ccccc12
4.73 µM: TGI (SF-539 CNS)
> 100 µM: TGI (OVCAR-8 ovarian) | TGI (HT29 colon) | TGI (SR leukemia) | TGI (EKVX NSCLC) | TGI (NCI-H460 lung) | TGI (K-562 leukemia) | TGI (COLO 205 colon)
> 80.1 µM: TGI (HL-60(TB) leukemia)

CN(CCN1C(=O)c2cc([N+](=O)[O-])cc3cc([N+](=O)[O-])cc(c23)C1=O)CCN1C(=O)c2cc([N+](=O)[O-])cc3cc([N+](=O)[O-])cc(c23)C1=O
14 µM: TGI (COLO 205 colon)
> 58.8 µM: TGI (SF-539 CNS)
> 100 µM: TGI (HT29 colon) | TGI (EKVX NSCLC) | TGI (K-562 leukemia)
0.536 µM: TGI (HL-60(TB) leukemia)
29.6 µM: TGI (OVCAR-8 ovarian)

c1ccc([P+](CCSCCSCC[P+](c2ccccc2)(c2ccccc2)c2ccccc2)(c2ccccc2)c2ccccc2)cc1
> 100 µM: TGI (OVCAR-8 ovarian) | TGI (HT29 colon) | TGI (HL-60(TB) leukemia) | TGI (SF-539 CNS) | TGI (EKVX NSCLC) | TGI (NCI-H460 lung) | TGI (K-562 leukemia) | TGI (COLO 205 colon)

CC1=Nc2ccccc2S/C1=C(/C)NNS(=O)(=O)c1ccc(C)cc1
> 100 µM: TGI (OVCAR-8 ovarian) | TGI (HT29 colon) | TGI (HL-60(TB) leukemia) | TGI (SF-539 CNS) | TGI (SR leukemia) | TGI (EKVX NSCLC) | TGI (NCI-H460 lung) | TGI (K-562 leukemia) | TGI (COLO 205 colon)

CN1C(=O)CCC1(O)C1C=CC=CC1 (centres undefined)
> 100 µM: TGI (OVCAR-8 ovarian) | TGI (HT29 colon) | TGI (HL-60(TB) leukemia) | TGI (SF-539 CNS) | TGI (SR leukemia) | TGI (NCI-H460 lung) | TGI (K-562 leukemia) | TGI (COLO 205 colon)

COc1ccc(/C=C/C(=O)c2cc(OC)c(OC)c(OC)c2)cc1OCC(=O)Nc1nc2ccc(OC(F)(F)F)cc2s1
1.18 µM: TGI (SF-539 CNS)
10.2 µM: TGI (K-562 leukemia)
7.82 µM: TGI (PC-3 prostate)
3.89 µM: TGI (OVCAR-8 ovarian)
6.25 µM: TGI (NCI-H460 lung)
> 100 µM: TGI (EKVX NSCLC)
39.8 µM: TGI (COLO 205 colon)
active: GI50 (SF-539 CNS) 0.293 µM | GI50 (SR leukemia) 0.391 µM
inactive: GI50 (OVCAR-8 ovarian) 1.54 µM | GI50 (PC-3 prostate) 3.14 µM | GI50 (HT29 colon) 3.66 µM | GI50 (EKVX NSCLC) 5.11 µM | GI50 (NCI-H460 lung) 2.43 µM | GI50 (K-562 leukemia) 0.438 µM | GI50 (COLO 205 colon) 6.37 µM
3.66 µM: TGI (SR leukemia)
79.4 µM: TGI (HT29 colon)

COc1ccc(C/C(=N/O)C(=O)NCCc2cc(Br)c(OCCCN(C)C)c(Br)c2)cc1Br
29.6 µM: TGI (SF-539 CNS)
43 µM: TGI (EKVX NSCLC)
40.2 µM: TGI (COLO 205 colon)
49.1 µM: TGI (OVCAR-8 ovarian)
33.4 µM: TGI (NCI-H460 lung)
19.1 µM: TGI (HT29 colon)
28.1 µM: TGI (HL-60(TB) leukemia)
